# Test results from patent US6624188B1, “Method of treatment with compounds having retinoid-like activity and reduced skin toxicity and lacking teratogenic effects” (Allergan, Inc., priority 1992, dated 2003).
# Where two headings read alike, the source gives them in different places.
# Experiments:
# [1] = tested on: female hairless mice; format: in vivo; conditions: for Death/Total: animals died from a group of 5; for % Weight Change: end of 14 day test or at death; for Flaking/scaling grade: scale 0 to +5
# Protocol: Specifically, tests to determine skin toxicity were performed on certain examplary compounds in accordance with the present invention, and on certain analogous compounds which lack the R3 substituent in accordance with Formula 1, 2 or 3. A “Two Week Acute Skin Toxicity Study of Multiple Topical Applications in Female Hairless Mice” is conducted as follows: a daily dose (expressed in nanomoles) of the “test compound” is applied to the skin on the back of hairless mice (usually a test group of 5 mice for a given compound). The daily dose of the test compound is applied for 5 consecutive days, followed by two days when the test compound is not administered, and is thereafter administered again for 4 more consecutive days. On the 14th day the test animals if still alive, are sacrificed to perform certain studies and tests. In the meanwhile certain tests and observations are made on a daily basis with respect to body weight and skin condition. Skin condition is graded as “flaking/scaling” and “abrasion” on a scale of 0 to +5 where the various numbers correspond to the following observations.
# Results of these tests are summarized in Table 3, where daily dose is expressed in nanomoles, weight loss of the test animals is in percentages at the end of the 14 day test period, or at the time the test animal expired, and mortality is expressed with the number of animals which died from a group of 5.
# [2] = tested on: gestating ICR mice; test: in vivo teratology study, single oral dose on day 11 of gestation; design: species or system mouse
# Protocol: The methodology of the study is described as follows:
# ICR mice (Ace Animals, Boyertown, Pa.) were used. Mature male and virgin female ICR mice were housed in environmentally controlled rooms and acclimatized to a 12 hour light/dark cycle (light cycle 6 A.M. to 6 P.M.) for 2 weeks prior to use. All animals were maintained on Purina Lab Chow and tap water ad libitum. A group of 3-4 females was caged with a single male of proven fertility for 4 hours. Presence of a vaginal plug immediately afterward was regarded as evidence of successful mating, and this day was designated as day 0 of gestation.
# […] All animals were killed by cervical dislocation under mild ether anesthesia on day 17 of gestation. Upon laparotomy, the fetuses were examined for external malformations and weighed; one-half of each litter was then fixed in 95% ethanol and processed for staining of the skeleton by the rapid, alizarin red-S dye method. These preparations were examined under a dissection microscope to screen for abnormalities in the axial and the appendicular skeleton. The other half of each litter was fixed in Bouin's solution and examined by freehand razor serial sectioning to screen for anomalies of the brain, face, and palate.
# Differences in dose-related incidence of malformations and resorptions were assessed by computing percentages of affected conceptuses among total implantation sites. The groups were compared statistically by a method based on Student's t-tests of arcs in square root transformed percentages. Values at 0.05 probability level were considered significant. The median effective dose was calculated by logarithmic curve fitting of the dose-response data.
# [3] = tested on: limb bud mesenchymal cells; test: inhibition of chondrogenesis in high-density spot cultures of limb bud mesenchymal cells; format: cell-based; conditions: Mus musculus; limb bud mesenchymal cell spot cultures, terminated 96 hours after plating; read-out: IC50 (concentration which inhibited chondrogenesis by 50%)
# Source text: In an in vitro bioassay which measures inhibition of chondrogenesis (bone formation) in […] as a classic measure of teratogenecity the results shown in Table 2 were obtained. The assay is described as follows:
# High-density “spot” cultures of limb bud mesenchymal cells were used to compare the ability of various concentrations of test drugs to suppress chondrogenic differentiation as a bioassay. Forelimb buds of mouse embryos on day 12 of gestation (54±2 somites) were dissociated in a trypsin-EDTA solution, and the resultant single-cell suspension was plated as 20-μl spots (200,000 cells/spot) on plastic culture dishes. Retinoid concentrations ranging from 0.3 ng/ml to 3 μg/ml (1 nM-10 μM) were added to the culture medium (Eagle's MEM+10% fetal bovine serum, GIBCO) 24 hours after initial plating. […]
# The cultures were terminated 96 hours after plating, at which time the medium was removed and the cells were fixed for 1 hour in 10% formalin containing 0.5% cetylpyridinium chloride. The cultures were rinsed in acetic acid and stained for 1 hour in 0.5% Alcian blue solution at pH 1.0, differentiated in 3% acetic acid, and then dehydrated in ethanol and scored for chondrogenesis under the microscope. […] The number of cartilage nodules stained in the whole spot, mean number of nodules, and standard deviations were calculated for four replicate cultures per treatment. […]
# [4] = tested on: tissue transglutaminase (tTGASE) in HL-60 cells; test: Tissue Transglutaminase Assay (tTGASE) in HL-60 Cells; format: cell-based; conditions: FIGS. 6-9
# Protocol: Other assays in which the retinoid like activity of the compounds used in accordance with the invention are confirmed are the HL-60 transglutaminase induction and HL-60 differentiation assay, the procedures of which are described as follows.
# HL-60 cells were grown as a suspension culture in T-162 cm^2 flasks in serum-free RPMI 1640 medium supplemented with insulin (5 μg/ml), transferrin (5 μg/ml), and selenium (3 nM). The cells (1×10^6 cells/well, in 6-well dishes) were treated with serial dilutions of test compounds in the above RPMI 1640 medium which was additionally supplemented with […] dibutyryl cyclic adenosine monophosphate, a component found to be necessary for efficient differentiation of the cells. Ethanol was used in the vehicle control cultures. After 1 days of incubation at 37° C. in a 7.5% CO2 incubator, the cells were collected in a set of tubes and pelleted by centrifugation. The cells were lyzed in a buffer containing 20 mM Tris-HCl, pH 7.5, 1 mM EDTA, and 0.5% Triton X-100. An aliquot of the cell lysate was assayed for tTGASE activity in a reaction mixture containing 20 mM Tris-HCl, pH 7.5, 5 mM CaCl2, 2 mg/ml dimethylcasein, 15 mM B-mercaptoethanol and 50 μCi/ml [2,3-^3H] putrescine dihydrochloride. The reaction was carried out for 60 minutes in a 37° C. shaking water bath. The reaction was stopped by an addition of 10% trichloroacetic acid containing 0.1% putrescein. An aliquot of the stopped reaction mixture was spotted on Whatman 3 MM filter discs. The filter discs, along with the control blank filter discs, were washed twice with 5% trichloroacetic acid containing 0.1% putrescein and twice with methanol. After drying under a heat lamp, the radioactivity in the filter discs was determined by scintillation counting. An aliquot of the cell lysates was also assayed for […] by the Bradford method (Bio-Rad). After subtracting the radioactivity from the control blank filter discs, the data were calculated and expressed as pmol/min/mg protein.
# As is well understood in the art, induction of tranglutaminase activity in the just-described assay is an early marker of retinoid like activity.
# [5] = pharmacokinetic study, drug concentration in maternal plasma and embryo after oral intubation; format: in vivo; conditions: mice, 10mg/kg dose, FIG. 1
# Protocol: FIG. 1 is a graph showing the concentration of compound AGN 191701 in nanograms per ml, or nanograms per gram as indicated on the chart, in the plasma and embryo of mice at various times after oral intubation of a single dose of 10 mg/kg of the compound.
# In contrast, the teratogenecity of prior art compound AGN 191183 is so high that even an undetectably low concentration of the drug already causes defective embryos.
# [6] = tested on: human sebocyte cultures; test: human sebocyte culture 3H-thymidine incorporation (DNA synthesis, anti-proliferative effect); format: cell-based; conditions: human sebocytes, 8 days treatment, FIG. 2
# Source text: The retinoid like activity of the compounds used in accordance with the method of treatment of the present invention and of the novel compounds of the invention can be confirmed by several assay procedures. An assay involving human sebocyte cultures measures the inhibition of ^3H-thymidine into cells, and thus measures inhibition of DNA synthesis and thus an anti-proliferative effect on sebocyte (i.e. a sebostatic effect). This assay is also considered a specific assay for effectiveness of a compound as a potential anti-acne drug. The test is conducted as follows.
# Face-lift or forehead reduction skins from cosmetic surgeries were used as sources of human sebaceous gland cells (sebocytes).
# Isolated sebocytes were plated in type 1 collagen coated-dishes in DMEM/F12 (1:1) medium supplemented with 8% fetal bovine serum, 2% human serum, 10 ng/ml epidermal growth factor, 1 nM cholera toxin, 1 μM hydrocortisone, and penicillin/streptomycin/amphotericin B. Secondary cultures were prepared by plating Dispase dissociated cells in collagen coated 24-well plates.
# Sub-confluent secondary cultures were treated with the test compounds or ethanol vehicle every 2-3 days for 8 days in the above medium from which the total serum concentration was reduced to 2% and hydrocortisone was not included. During the last 6 hours of treatment, the cultures were labeled with 2 μCi/ml ^3H-thymidine. DNA from the cells were extracted by thichoroacetic acid and perchloric acid, and assayed for radioactivity by scintillation counting and for content of DNA by the diphenylamine calorimetric method. The results were expressed as CPM/μg DNA, or as per cent of vehicle control which incorporated about 1,000-1,500 cpm/μg DNA.
# [7] = female, ICR, mouse, in vivo, po, 1 mg/kg, 17 day of gestation
# [8] = female, ICR, mouse, in vivo, po, 10 mg/kg, 17 day of gestation
# [9] = female, ICR, mouse, in vivo, po, 100 mg/kg, 17 day of gestation
# [10] = single oral dose 1 mg/kg, day 11 of gestation, ICR mice
# [11] = single oral dose 10 mg/kg, day 11 of gestation, ICR mice
# [12] = single oral dose 100 mg/kg, day 11 of gestation, ICR mice
# [13] = daily dose 75 nanomoles topical
# [14] = daily dose 124 nanomoles topical
# [15] = daily dose 1240 nanomoles topical
compound,measurement,setting,value
"CCOC(=O)c1ccc(/C=C(\C)c2cc(C(C)(C)C)ccc2C)cc1 [AGN191544, Ethyl 4-[(E)-2-(2-Methyl-5-tert-butylphenyl)propen-1-yl]benzoate]",Death/Total,[1]; daily dose 800 nanomoles topical,0/5
"C/C(=C\c1cc(C(=O)O)cs1)c1cc2c(cc1C)C(C)(C)CCC2(C)C [AGN 191701, 2-[(E)-2-(5,6,7,8-Tetrahydro-3,5,5,8,8-pentamethylnaphthalen-2-yl)propen-1-yl]thiophene-4-carboxylic Acid]",times less teratogenic than AGN 191183,"[2]; female, ICR, mouse, in vivo, 17 day of gestation",approximately 10^4 times
same,# Litters Normal,[2]; [7],1
same,Teratogenic Effects % Cleft Palate,[2]; [7],0%
same,Teratogenic Effects % Limb Defects,[2]; [7],0%
same,Teratogenic Effects % Resorbed,[2]; [7],18%
same,# Litters Normal,[2]; [8],3
same,Teratogenic Effects % Cleft Palate,[2]; [8],0%
same,Teratogenic Effects % Limb Defects,[2]; [8],0%
same,Teratogenic Effects % Resorbed,[2]; [8],14%
same,# Litters Normal,[2]; [9],2
same,Teratogenic Effects % Cleft Palate,[2]; [9],19%
same,Teratogenic Effects % Limb Defects,[2]; [9],22%
same,Teratogenic Effects % Resorbed,[2]; [9],2%
same,teratogenic effect (in words),"[2]; mouse, in vivo",very little teratogeneic effect
same,IC50,[3],19 µg/mL
same,induction of transglutaminase activity,[4],active
same,concentration of the drug in the maternal plasma and in the embryo,[5],present in substantial concentration
same,inhibition of 3H-thymidine incorporation (effectiveness in sebocyte assay),[6],effective
"CCOC(=O)c1ccc(/C=C(\C)c2cc3c(cc2C)OC(C)(C)CC3(C)C)cc1 [AGN191549, Ethyl 4-[(E)-2-(2,2,4,4,7-Pentamethyl-chroman-6-yl)propen-1-yl]-benzoate]",Death/Total,[1]; daily dose 300 nanomoles topical,0/5
"C/C(=C\c1ccc(C(=O)O)s1)c1cc2c(cc1C)C(C)(C)CCC2(C)C [AGN 191659, 5-[(E)-2-(5,6,7,8-Tetrahydro-3,5,5,8-pentamethylnaphthalen-2-yl)propen-1-yl]-2-thiophenecarboxylic Acid]",induction of transglutaminase activity,[4],active
same,inhibition of 3H-thymidine incorporation (effectiveness in sebocyte assay),[6],effective
"C/C(=C\c1ccc(C(=O)O)cc1)c1cc2c(cc1Cl)C(C)(C)CCC2(C)C [AGN 191642, 4[(E)-2-(3-Chloro-5,6,7,8-tetrahydro-5,5,8,8-tetramethylnaphthalen-2-yl)propen-1-yl]benzoic Acid]",induction of transglutaminase activity,[4],active
C/C(=C\c1ccc(C(=O)O)cc1)c1cc2c(cc1C)C(C)(C)CCC2(C)C [AGN 191440],times less teratogenic than AGN 191183,[2]; comparison of doses producing teratogenic effects in ICR mice,approximately 100 times
same,# Litters Normal,[2]; [10],5
same,Teratogenic Effects % Cleft Palate,[2]; [10],13%
same,Teratogenic Effects % Limb Defects,[2]; [10],17%
same,Teratogenic Effects % Resorbed,[2]; [10],19%
same,# Litters Normal,[2]; [11],1
same,Teratogenic Effects % Cleft Palate,[2]; [11],88%
same,Teratogenic Effects % Limb Defects,[2]; [11],75%
same,Teratogenic Effects % Resorbed,[2]; [11],2%
same,# Litters Normal,[2]; [12],0
same,Teratogenic Effects % Resorbed,[2]; [12],100%
same,Death/Total,[1]; [13],0/5
same,% Weight Change,[1]; [13],3.1%
same,Flaking/scaling grade,[1]; [13],+2 (Slight (˜25% or less))
same,Death/Total,[1]; [14],0/5
same,% Weight Change,[1]; [14],−2.7%
same,Flaking/scaling grade,[1]; [14],+2 (Slight (˜25% or less))
same,Death/Total,[1]; [15],3/5
same,% Weight Change,[1]; [15],−19.5%
same,Flaking/scaling grade,[1]; [15],"+4 (Moderate (greater than ˜50%, less than ˜75%))"
same,induction of transglutaminase activity,[4],active
"CCOC(=O)c1ccc(/C=C(\C)c2cc3c(cc2C)C(C)(C)CCC3(C)C)cc1 [AGN191422, Ethyl 4-[(E)-2-(5,6,7,8-Tetrahydro-3,5,5,8,8-pentamethylnaphthalen-2-yl)propen-1-yl]benzoate]",Death/Total,[1]; daily dose 60 nanomoles topical,0/5
same,Death/Total,[1]; daily dose 64 nanomoles topical,0/5
